# Test results from the supplement of paper PMC10307832.
# What was measured:
# Assay in all cases: relative viability (nuclei count vs DMSO), 5 days (fraction); higher = more cells survive
# [1] = compound: CCCS(=O)(=O)Nc1ccc(F)c(C(=O)c2c[nH]c3ncc(-c4ccc(Cl)cc4)cc23)c1F [Vemurafenib] + CCNC(=O)c1noc(-c2cc(C(C)C)c(O)cc2O)c1-c1ccc(CN2CCOCC2)cc1 [Luminespib] (partner 0.01 µM)
# Outline: (§1)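 Relative viability equals treated-well nuclei counts divided by vehicle-well nuclei counts. Counts came from 4× images of lung cancer cell lines grown in 1536-well plates for 5 days after pin-tool dosing on the day after seeding. Dosing used one drug alone or a fixed anchor-drug dose plus five library-drug doses (not always all listed) in √10 steps, and values are medians of duplicate plates.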
# [2] = compound: COc1cccc2cc(-c3nc([C@H]4CC[C@H](C(=O)O)CC4)n4ncnc(N)c34)[nH]c12 [OSI-027] + Nc1nc2[nH]cc(CCc3ccc(C(=O)N[C@@H](CCC(=O)O)C(=O)O)cc3)c2c(=O)[nH]1 [Pemetrexed] (partner 0.2 µM)
# Outline: as §1
# [3] = compound: Cc1nc(NC(=O)N2CCC[C@H]2C(N)=O)sc1-c1ccnc(C(C)(C)C(F)(F)F)c1 [Alpelisib] + COc1cc2c(Oc3ccc(NC(=O)C4(C(=O)Nc5ccc(F)cc5)CC4)cc3F)ccnc2cc1OCCCN1CCOCC1 [Foretinib] (partner 0.25 µM)
# Outline: as §1
# [4] = compound: Cc1nc(NC(=O)N2CCC[C@H]2C(N)=O)sc1-c1ccnc(C(C)(C)C(F)(F)F)c1 [Alpelisib] + Cc1cc(Nc2cc(N3CCN(C)CC3)nc(Sc3ccc(NC(=O)C4CC4)cc3)n2)n[nH]1 [Tozasertib] (partner 0.1 µM)
# Outline: as §1
Cell Line,relative viability ([1]; first compound 0.03162 µM),relative viability ([1]; first compound 0.3162 µM),relative viability ([1]; first compound 1 µM),relative viability ([2]; first compound 0.01 µM),relative viability ([2]; first compound 0.03162 µM),relative viability ([2]; first compound 0.1 µM),relative viability ([2]; first compound 0.3162 µM),relative viability ([2]; first compound 1 µM),relative viability ([3]; first compound 0.04 µM),relative viability ([3]; first compound 0.1265 µM),relative viability ([3]; first compound 0.4 µM),relative viability ([3]; first compound 1.265 µM),relative viability ([3]; first compound 4 µM),relative viability ([4]; first compound 0.04 µM),relative viability ([4]; first compound 0.1265 µM),relative viability ([4]; first compound 0.4 µM),relative viability ([4]; first compound 1.265 µM),relative viability ([4]; first compound 4 µM),relative viability ([1]; first compound 0.1 µM)
HCC-827,0.654,0.537,0.669,0.259,0.23,0.276,0.264,0.242,1,1.05,0.968,0.964,0.746,0.462,0.409,0.508,0.398,0.366,–
HOP-62,0.902,0.931,0.971,0.371,0.307,0.341,0.331,0.261,1.08,1.15,1.23,1.02,0.978,0.328,0.374,0.465,0.322,0.292,0.843
IA-LM,–,–,–,–,–,–,–,–,1.03,1.31,1.11,1.12,1.13,–,–,–,–,–,–
LC-2-ad,0.887,–,1.05,0.279,0.239,0.273,0.283,0.271,0.863,0.908,0.966,0.601,0.576,0.377,0.372,0.431,0.307,0.348,0.978
LCLC-97TM1,0.811,0.807,0.817,0.178,0.207,0.147,0.186,0.15,0.879,0.913,0.883,0.73,0.449,0.206,0.176,0.178,0.146,0.117,0.768
LCLC-103H,0.914,0.899,0.967,0.481,0.47,0.481,0.446,0.52,0.67,0.758,0.652,0.567,0.471,0.462,0.448,0.482,0.357,0.37,0.805
LK-2,0.19,0.131,0.181,0.238,–,0.237,0.174,0.158,1.07,1.19,1.28,0.906,0.932,0.158,0.164,0.179,0.167,0.154,0.188
LOU-NH91,0.301,–,0.412,0.387,0.368,0.493,0.508,0.63,0.933,0.853,0.81,0.738,0.754,0.689,0.643,0.656,0.563,0.443,–
LU99A,0.224,0.259,0.288,0.181,0.362,0.173,0.239,0.159,0.746,0.832,0.722,0.661,0.503,0.283,0.26,0.308,0.259,0.23,0.282
LXF-289,0.647,0.661,0.689,0.939,0.841,1.04,0.974,0.837,0.951,1,1.08,0.909,0.764,0.21,0.182,0.249,0.134,0.128,0.584
NCI-H23,0.194,0.166,0.228,0.617,0.757,0.598,0.47,0.395,0.859,0.935,0.977,0.743,0.621,0.39,0.428,0.459,0.302,0.255,0.211
NCI-H322M,0.861,–,0.825,0.602,0.608,0.633,0.556,0.519,0.909,0.867,0.927,0.619,0.678,0.496,0.435,0.515,0.383,0.284,–
NCI-H358,0.27,0.504,0.267,0.185,0.171,0.176,0.132,0.151,0.622,0.674,0.684,0.567,0.353,0.111,0.114,0.116,0.0852,0.0831,–
NCI-H522,0.96,–,1.13,1.04,0.956,0.717,0.858,0.664,–,–,–,–,–,0.519,0.558,0.527,0.47,0.37,1.14
NCI-H727,0.309,0.313,0.353,–,–,–,–,–,0.897,0.772,0.771,0.645,0.676,0.749,0.584,0.641,0.575,0.459,–
NCI-H1299,–,–,–,–,–,–,–,–,1.12,1.12,1.19,0.978,1.12,–,–,–,–,–,–
NCI-H1563,0.505,0.563,0.59,0.754,0.719,0.72,0.755,0.543,0.861,0.95,0.909,0.713,0.748,–,–,–,–,–,0.475
NCI-H1623,0.631,0.679,0.414,–,–,–,–,–,0.833,0.744,0.845,0.54,0.494,0.446,0.338,0.388,0.347,0.29,–
NCI-H1648,–,–,–,0.849,0.825,–,0.656,0.701,–,–,–,–,–,–,0.68,0.607,0.27,0.22,–
NCI-H1703,–,–,–,–,–,–,–,–,0.295,0.362,0.381,0.271,0.303,–,–,–,–,–,–
NCI-H1792,0.373,0.575,0.434,0.569,0.852,0.757,0.635,0.214,–,–,–,–,–,–,–,–,–,–,0.345
